Assay [1] addresses T1, H. halys OBP16 (Halyomorpha halys, UniProt A0A1L2JGT7).
T1 sequence (A0A1L2JGT7 23-177): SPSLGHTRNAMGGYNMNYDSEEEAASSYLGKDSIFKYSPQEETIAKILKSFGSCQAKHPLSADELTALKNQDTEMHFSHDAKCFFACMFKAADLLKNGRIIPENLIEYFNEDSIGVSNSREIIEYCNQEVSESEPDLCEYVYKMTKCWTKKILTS
The experiment in a line: Competitive fluorescence-binding assay with 1-NPN as probe. The procedure: (§1) Emission fluorescence spectra were measured on a HORIBA FluoromMax®-4 fluorescence spectrophotometer in a right-angle configuration with a 1 cm light path quartz cuvette. The protein was dissolved in 50 mM Tris-HCl buffer, pH 7.4, while all ligands used in binding experiments were used as 1 mM methanol solutions. The excitation wavelength was 337 nm, and the range of the scanning emission wavelength was 380–450 nm.
(§2) The binding abilities of the OBPs and (E)-2-decenal were later investigated. Fluorescence intensities were automatically subtracted from blank fluorescence values when harvested from instrument. The excitation wavelength was set at 337 nm, and the range of the scanning emission wavelength was 380–450 nm. First, 2 mL 50-mM Tris-HCl solution was added, and then the OBP and 1-NPN were added until the concentration was 2 μM. The highest stable fluorescence intensity was record. Then, we added the (E)-2-decenal, which was dissolved in methanol in the cuvette, and continued the titration from 2 μM until the fluorescence intensity was stable. The highest stable fluorescence intensity was recorded. Each OBP was tested three times. The dissociation constant was calculated based on the formula Kd = [IC50]/(1 + [1-NPN]/K1−NPN), where IC50 represents the (E)-2-decenal concentration when the fluorescence intensity of [OBP/1-NPN] declined to the half of the highest value, [1-NPN] represents the dissociative concentration of 1-NPN, and K1−NPN represents the dissociation constant of OBP/1-NPN.

Assay [2] concerns the target T2, H. halys OBP25 (Halyomorpha halys, UniProt A0A1L2JGT3).
T2 sequence (A0A1L2JGT3 20-148): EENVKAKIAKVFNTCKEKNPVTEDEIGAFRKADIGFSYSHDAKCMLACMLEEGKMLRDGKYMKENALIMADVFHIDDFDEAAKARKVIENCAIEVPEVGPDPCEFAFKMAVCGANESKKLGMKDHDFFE
Described as above. The protocol: as §1, §2

Assay [3] concerns the target T3, H. halys OBP30 (Halyomorpha halys, UniProt A0A1P8P1N8).
T3 sequence (A0A1P8P1N8 19-136): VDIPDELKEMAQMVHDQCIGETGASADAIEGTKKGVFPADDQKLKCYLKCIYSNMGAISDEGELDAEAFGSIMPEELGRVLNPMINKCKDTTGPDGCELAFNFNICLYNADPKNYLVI
The description is as above. The procedure:
as §1, §2

The target of assay [4] is T4, H. halys OBP4 (Halyomorpha halys, UniProt A0A1L2JGP5).
T4 sequence (A0A1L2JGP5 20-212): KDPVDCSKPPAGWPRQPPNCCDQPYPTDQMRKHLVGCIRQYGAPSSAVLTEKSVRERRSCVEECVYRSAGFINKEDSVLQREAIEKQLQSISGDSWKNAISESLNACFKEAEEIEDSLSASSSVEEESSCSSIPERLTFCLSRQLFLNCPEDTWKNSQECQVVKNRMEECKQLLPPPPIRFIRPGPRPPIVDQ
Described as above. The procedure: as §1, §2

In assay [5] the target is T5, H. halys OBP8 (Halyomorpha halys, UniProt A0A1N7TMV1).
T5 sequence (A0A1N7TMV1 23-143): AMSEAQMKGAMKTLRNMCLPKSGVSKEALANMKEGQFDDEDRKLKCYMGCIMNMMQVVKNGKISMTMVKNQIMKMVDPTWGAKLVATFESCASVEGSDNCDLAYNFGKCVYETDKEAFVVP
Described as above. The procedure: as §1, §2

Assay [6] deals with H. halys antennae. Kind of assay: EAG recordings on excised antennae. More on the design: species or system Halyomorpha halys. The note with it: 10 μg dose, all developmental stages, versus n-hexane control. The procedure: EAG recordings were used to identify electrophysiological activities of H. halys at each developmental stage (female and male adults, and nymphal larvae). Each antenna of the brown marmorated stink bug was prepared following the standard procedures of cutting its tip and base and immediately mounting the excised antenna between two glass capillary Ag/AgCl electrodes filled with Kaissling saline (Tang et al., [2016]). The electrode at the distal end of the antenna was connected through an interface box to a signal acquisition interface board (IDAD; Syntech, Netherlands).
n-Hexane was used as the control, and 1 μg/μl (E)-2-decenal was used as the test solution. The measure dose was 10 μg, and the order of antennal exposure was air, n-hexane, and (E)-2-decenal. In total, 10 replicates were used. The direct voltage was 2 mv, the continuous flow velocity was 150 ml/min, the stimulated flow velocity was 20 ml/min, the stimulation time was 0.1 s, and the stimulus intervals were 10 s.
The following equation was used to calculate the EAG recording result:
Relative response value = sample response value − control response value.

The test system of assay [7] is H. halys adults. The experiment in a line: Grouped dispersal (repellency) test. Type of assay: in vivo, Halyomorpha halys. The following applies: 10 μg, 60 s. The procedure: A group test was performed first to assess the repellency of (E)-2-decenal to H. halys adults. In total, 10–20 adults were collected and moved into a plastic rearing box for 1 h to let the adults aggregate and rest before the test. A filter paper loaded with 10 μg (E)-2-decenal was then put into a syringe, and the volatile was released into the air at a distance of 1 cm from the aggregated H. halys adults. The test lasted for 60 s, and the number of dispersed H. halys were counted and recorded. n-Hexane was used as the control following the same protocol. In total, 10 replicates were performed for each treatment.

Assay [8] relates to H. halys adults and 1st to 5th instar nymphs. The experiment in a line: Route test with individual stink bugs on circular track. Format: in vivo, Halyomorpha halys. The procedure: To identify the alarm pheromone activity in each developmental stage of H. halys (female and male adults, and 1st to 5th instar nymphs), we performed a behavioral test (Noge et al., [2015]) using a gradient of (E)-2-decenal solutions (10 μg/μl, 1 μg/μl, 100 ng/μl, 10 ng/μl, and 1 ng/μl) for the nymphs and the last four doses for both genders of adults. A circular track was made by joining the ends of a silicone tube (100 cm long, 1.2 cm inner diameter), and the track was placed on a tripod stand in the behavioral testing laboratory (25°C ± 1°C, relative humidity = 50% ± 10%). An individual H. halys was placed gently on the track and left for 5 min until it was motionless. Different 10-μl concentrations of (E)-2-decenal were loaded onto a filter paper disk (2 cm diameter), and the disk was then placed 2 mm from the stink bug's antenna. The time taken for the nymph or adult stink bug to change direction and the distance it moved away from the starting point within 15 s were observed and recorded. […] Every developmental stage of H. halys for each chemical treatment was tested 15 times.

The test system of assay [9] is male and female H. halys. More on the design: method as in Zhong et al., 2017. The note with it: ref Zhong et al., 2017; cited from earlier work.
In assay [10] the test system is adult N. viridula. More on the design: method as in Lockwood and Story, 1987. The note with it: ref Lockwood and Story, 1987; cited from earlier work.
The subject of assay [11] is H. halys. More on the design: method as in Zhang et al., 2014a. The following applies: combined with tridecane; ref Zhang et al., 2014a; cited from earlier work.
In assay [12] the test system is entomopathogenic fungi. More on the design: method as in Weber et al., 2017b. The following applies: ref Weber et al., 2017b; cited from earlier work.
Assay [13] deals with T1, H. halys OBP16. Kind of assay: Fluorescence binding of probe 1-NPN to OBP (Scatchard). The note with it: dissociation constant of OBP16/1-NPN, 2 μM OBP, 50 mM Tris-HCl pH 7.4; read-out: KOBPx/1-NPN. The procedure: as §1
(§3) The binding constants of OBPs with probe N-phenyl-1-naphtylamine (1-NPN) were determined. We first added 2 ml 50 mM Tris-HCl solution to the cuvette, then added the OBP until the concentration reached 2 μM, measured and recorded the emission spectrum, continued titration, and recorded the highest stable fluorescence intensity. The Scatchard equation was used to record the binding constant of each OPB with 1-NPN.

Assay [14] deals with T2, H. halys OBP25. The assay is described as above. The following applies: dissociation constant of OBP25/1-NPN, 2 μM OBP, 50 mM Tris-HCl pH 7.4; read-out: KOBPx/1-NPN. The procedure:
as §1, §3

The target in assay [15] is T3, H. halys OBP30. Described as above. The note with it: dissociation constant of OBP30/1-NPN, 2 μM OBP, 50 mM Tris-HCl pH 7.4; read-out: KOBPx/1-NPN. The procedure:
as §1, §3

Assay [16] concerns the target T4, H. halys OBP4. The assay is described as above. The note with it: dissociation constant of OBP4/1-NPN, 2 μM OBP, 50 mM Tris-HCl pH 7.4; read-out: KOBPx/1-NPN. The protocol: as §1, §3
The target of assay [17] is T5, H. halys OBP8. Described as above. The following applies: dissociation constant of OBP8/1-NPN, 2 μM OBP, 50 mM Tris-HCl pH 7.4; read-out: KOBPx/1-NPN. The protocol: as §1, §3
[18] abbreviates: Kd = [IC50]/(1 + [1-NPN]/K1-NPN), OBP and 1-NPN 2 μM.
The mark [19] stands for this setting: concentration at which [OBP/1-NPN] fluorescence declined to half.

As for `CCCCCCC/C=C/C=O` [(E)-2-decenal], the Kd is 6.16 ± 0.42 µM in assay [1] (setting [18]); 2.21 ± 0.064 µM in [2] (setting [18]); 10.5 ± 0.64 µM in assay [3] (setting [18]); 26 ± 3.01 µM in [4] (OBP4, Kd = [IC50]/(1 + [1-NPN]/K1-NPN), OBP and 1-NPN 2 μM); 8.61 ± 0.24 µM in assay [5] (setting [18]). Further, the IC50 was 13.7 ± 0.94 µM in assay [1] (setting [19]); 7.18 ± 0.21 µM in [2] (setting [19]); 16.7 ± 1.01 µM in assay [3] (setting [19]); 31.3 ± 3.61 µM in [4] (OBP4, concentration at which [OBP/1-NPN] fluorescence declined to half); 13.7 ± 0.38 µM in assay [5] (setting [19]). For the same molecule, the “binding activity to (E)-2-decenal” value in [4] (OBP4, in words) is “did not show a good binding activity”. Moreover, the EAG responses result in assay [6] was “significantly greater electrophysiological responses compared with the n-hexane control, except for the 1st instar nymphs”. The molecule also registered a Repellent rates in assay [7] of 84.1 ± 5.14%. Besides, the “repellence compared with n-hexane control” value in assay [8] (1 μg and 10 μg, all stages of H. halys) is reported as “significantly repelled”. Besides, in assay [8] (3rd to 5th instar nymphs, all tested doses, within 15 s), the “moving distances compared with n-hexane control” value is given as “significantly longer moving distances”. The “repellent effect starting at a tested dose” value in [8] (5th instar nymphs, response time) stood at 10 ng. In addition, the “repellence in Y-tube assays” value in assay [9] was “strongly repel”. Moreover, in [10], the alarm effects result is recorded as “no alarm effects”. In assay [11], the feeding deterrence result is reported as “strong feeding deterrent”. In assay [12], the “effect on entomopathogenic fungi” value is “fungistatic effect and inhibits spore germination”.

In the case of `c1ccc(Nc2cccc3ccccc23)cc1` [1-NPN, N-phenyl-1-naphtylamine], the Kd in assay [13] turned out to be 1.13 ± 0.08 µM; in assay [14], 0.51 ± 0.3 µM; in assay [15] it was 2.79 ± 0.74 µM; in [16] it was 9.18 ± 2.67 µM; in assay [17], 2.74 ± 0.8 µM.

By IC50 is commonly meant the concentration needed to halve the response being measured. Lower therefore signals greater potency in that assay.
